Results on 1 compound are retold here after paper PMC7522982, “PKIS deep dive yields a chemical starting point for dark kinases and a cell active BRSK2 inhibitor” (Scientific Reports, 2020).

Experiment [1] has as its target T1, BRSK1 (Homo sapiens, UniProt Q8TDC3).
T1 sequence (Q8TDC3 1-778): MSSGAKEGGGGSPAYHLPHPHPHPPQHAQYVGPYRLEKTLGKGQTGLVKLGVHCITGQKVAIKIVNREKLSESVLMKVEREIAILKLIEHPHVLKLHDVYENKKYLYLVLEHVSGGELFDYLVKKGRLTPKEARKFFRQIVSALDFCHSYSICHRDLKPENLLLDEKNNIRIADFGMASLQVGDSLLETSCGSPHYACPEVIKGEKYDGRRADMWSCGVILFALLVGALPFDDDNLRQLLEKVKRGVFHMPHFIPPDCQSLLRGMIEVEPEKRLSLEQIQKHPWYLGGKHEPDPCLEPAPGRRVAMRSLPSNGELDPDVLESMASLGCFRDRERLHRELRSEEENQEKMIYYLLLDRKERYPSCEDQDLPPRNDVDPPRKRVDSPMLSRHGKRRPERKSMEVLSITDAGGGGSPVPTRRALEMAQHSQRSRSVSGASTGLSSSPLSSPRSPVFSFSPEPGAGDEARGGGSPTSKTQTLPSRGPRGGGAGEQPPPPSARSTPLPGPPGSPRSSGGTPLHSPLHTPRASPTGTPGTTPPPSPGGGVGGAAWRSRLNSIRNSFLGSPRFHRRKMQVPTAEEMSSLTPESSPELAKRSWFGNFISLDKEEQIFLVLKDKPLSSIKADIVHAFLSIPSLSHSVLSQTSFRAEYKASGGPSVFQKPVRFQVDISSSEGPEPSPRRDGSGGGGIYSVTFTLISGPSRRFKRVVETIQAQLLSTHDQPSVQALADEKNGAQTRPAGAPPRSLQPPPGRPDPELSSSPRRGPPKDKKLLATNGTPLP
Also noted: purchased Eurofins DiscoverX Corporation; method as in earlier work. Particulars: cited from earlier work.

Experiment [2] deals with AURKB (Homo sapiens, UniProt Q96GD4). Put plainly: DiscoverX scanMAX competition binding assay. Also noted: purchased Eurofins DiscoverX (scanMAX) / Eurofins enzymatic assays. An excerpt:
(§1) Based on its narrow profile when tested in the combined Nanosyn and TSA panels, GW296115 was included in the recently released Kinase Chemogenomic Set (KCGS)[15]. All of the data presented in the Introduction section was collected prior to the inclusion of GW296115 in KCGS and everything that follows has been subsequently generated. Since its inclusion in PKIS and more recently KCGS, we have carried out a broader round of screening at DiscoverX. This profiling data has not been previously released and is reported here for the first time. GW296115 was profiled against 403 wild type human kinases at 1 μM using the DiscoverX scanMAX screening platform, which employs an active site-directed competition binding assay to quantitatively measure interactions between test compounds and kinases, [16]. GW296115 inhibited 25 kinases > 90% at 1 μM, resulting in a selectivity index (S10) of 0.062 at 1 μM (Table S2, Fig. 1C)[17].
(§2) The scanMAX assays were performed at Eurofins DiscoverX Corporation as previously described.

In experiment [3] the target is DAPK2 (Homo sapiens, UniProt Q9UIK4). The experiment in a line: DiscoverX scanMAX competition binding assay. On the set-up: purchased Eurofins DiscoverX (scanMAX) / Eurofins enzymatic assays.
Source text: as §1, §2

The target of experiment [4] is DAPK3/ZIPK (Homo sapiens, UniProt O43293). Put plainly: DiscoverX scanMAX competition binding assay. On the set-up: purchased Eurofins DiscoverX (scanMAX) / Eurofins enzymatic assays.
Source text: as §1, §2

In experiment [5] the target is MAP3K9/MLK1 (Homo sapiens, UniProt P80192). The experiment in a line: DiscoverX scanMAX competition binding assay. Also noted: purchased Eurofins DiscoverX (scanMAX) / Eurofins enzymatic assays.
Source text: as §1, §2

For experiment [6], the target named is MAP4K4/HGK (Homo sapiens, UniProt O95819). The experiment in a line: DiscoverX scanMAX competition binding assay. On the set-up: purchased Eurofins DiscoverX (scanMAX) / Eurofins enzymatic assays.
Source text: as §1, §2

Experiment [7] has as its target MINK1/MINK (Homo sapiens, UniProt Q8N4C8). Put plainly: DiscoverX scanMAX competition binding assay. Also noted: purchased Eurofins DiscoverX (scanMAX) / Eurofins enzymatic assays.
Source text: as §1, §2

Experiment [8] concerns the target PDGFRA (Homo sapiens, UniProt P16234). Put plainly: DiscoverX scanMAX competition binding assay. On the set-up: purchased Eurofins DiscoverX (scanMAX) / Eurofins enzymatic assays.
Source text: as §1, §2

The target of experiment [9] is PDGFRB (Homo sapiens, UniProt P09619). Put plainly: DiscoverX scanMAX competition binding assay. On the set-up: purchased Eurofins DiscoverX (scanMAX) / Eurofins enzymatic assays.
Source text: as §1, §2

In experiment [10] the target is PIM3 (Homo sapiens, UniProt Q86V86). Put plainly: DiscoverX scanMAX competition binding assay. On the set-up: purchased Eurofins DiscoverX (scanMAX) / Eurofins enzymatic assays.
Source text: as §1, §2

Experiment [11] deals with PRKG2/PKG2 (Homo sapiens, UniProt Q13237). The experiment in a line: DiscoverX scanMAX competition binding assay. Also noted: purchased Eurofins DiscoverX (scanMAX) / Eurofins enzymatic assays.
Source text: as §1, §2

Experiment [12] concerns the target RPS6KA6/RSK4 (Homo sapiens, UniProt Q9UK32). The experiment in a line: DiscoverX scanMAX competition binding assay. Also noted: purchased Eurofins DiscoverX (scanMAX) / Eurofins enzymatic assays.
Source text: as §1, §2

Experiment [13] addresses T2, STK17B/DRAK2 (Homo sapiens, UniProt O94768).
T2 sequence (O94768 1-372): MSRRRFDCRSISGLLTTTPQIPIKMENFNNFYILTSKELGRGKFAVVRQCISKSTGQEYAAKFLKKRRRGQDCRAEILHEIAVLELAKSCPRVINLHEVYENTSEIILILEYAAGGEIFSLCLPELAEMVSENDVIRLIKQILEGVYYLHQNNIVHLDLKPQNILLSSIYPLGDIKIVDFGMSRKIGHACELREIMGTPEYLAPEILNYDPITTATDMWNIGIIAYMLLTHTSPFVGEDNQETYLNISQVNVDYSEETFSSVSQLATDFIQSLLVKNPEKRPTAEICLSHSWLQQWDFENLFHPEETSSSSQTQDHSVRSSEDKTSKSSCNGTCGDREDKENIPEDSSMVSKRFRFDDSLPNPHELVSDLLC
The experiment in a line: DiscoverX scanMAX competition binding assay. On the set-up: purchased Eurofins DiscoverX (scanMAX) / Eurofins enzymatic assays.
Source text: as §1, §2

Experiment [14] concerns the target TNIK (Homo sapiens, UniProt Q9UKE5). The experiment in a line: DiscoverX scanMAX competition binding assay. Also noted: purchased Eurofins DiscoverX (scanMAX) / Eurofins enzymatic assays.
Source text: as §1, §2

Sequence of AURKB (Q96GD4 whole entry): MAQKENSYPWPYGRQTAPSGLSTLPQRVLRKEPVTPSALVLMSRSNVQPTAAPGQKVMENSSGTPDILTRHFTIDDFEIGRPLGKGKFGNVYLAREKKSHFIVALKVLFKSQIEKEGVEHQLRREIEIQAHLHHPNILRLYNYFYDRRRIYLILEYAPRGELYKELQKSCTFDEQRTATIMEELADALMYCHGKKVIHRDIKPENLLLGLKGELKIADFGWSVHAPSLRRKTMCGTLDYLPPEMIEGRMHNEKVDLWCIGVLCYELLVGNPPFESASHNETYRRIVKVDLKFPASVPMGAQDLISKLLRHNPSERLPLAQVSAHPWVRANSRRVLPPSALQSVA
Sequence of MAP4K4/HGK (O95819 whole entry): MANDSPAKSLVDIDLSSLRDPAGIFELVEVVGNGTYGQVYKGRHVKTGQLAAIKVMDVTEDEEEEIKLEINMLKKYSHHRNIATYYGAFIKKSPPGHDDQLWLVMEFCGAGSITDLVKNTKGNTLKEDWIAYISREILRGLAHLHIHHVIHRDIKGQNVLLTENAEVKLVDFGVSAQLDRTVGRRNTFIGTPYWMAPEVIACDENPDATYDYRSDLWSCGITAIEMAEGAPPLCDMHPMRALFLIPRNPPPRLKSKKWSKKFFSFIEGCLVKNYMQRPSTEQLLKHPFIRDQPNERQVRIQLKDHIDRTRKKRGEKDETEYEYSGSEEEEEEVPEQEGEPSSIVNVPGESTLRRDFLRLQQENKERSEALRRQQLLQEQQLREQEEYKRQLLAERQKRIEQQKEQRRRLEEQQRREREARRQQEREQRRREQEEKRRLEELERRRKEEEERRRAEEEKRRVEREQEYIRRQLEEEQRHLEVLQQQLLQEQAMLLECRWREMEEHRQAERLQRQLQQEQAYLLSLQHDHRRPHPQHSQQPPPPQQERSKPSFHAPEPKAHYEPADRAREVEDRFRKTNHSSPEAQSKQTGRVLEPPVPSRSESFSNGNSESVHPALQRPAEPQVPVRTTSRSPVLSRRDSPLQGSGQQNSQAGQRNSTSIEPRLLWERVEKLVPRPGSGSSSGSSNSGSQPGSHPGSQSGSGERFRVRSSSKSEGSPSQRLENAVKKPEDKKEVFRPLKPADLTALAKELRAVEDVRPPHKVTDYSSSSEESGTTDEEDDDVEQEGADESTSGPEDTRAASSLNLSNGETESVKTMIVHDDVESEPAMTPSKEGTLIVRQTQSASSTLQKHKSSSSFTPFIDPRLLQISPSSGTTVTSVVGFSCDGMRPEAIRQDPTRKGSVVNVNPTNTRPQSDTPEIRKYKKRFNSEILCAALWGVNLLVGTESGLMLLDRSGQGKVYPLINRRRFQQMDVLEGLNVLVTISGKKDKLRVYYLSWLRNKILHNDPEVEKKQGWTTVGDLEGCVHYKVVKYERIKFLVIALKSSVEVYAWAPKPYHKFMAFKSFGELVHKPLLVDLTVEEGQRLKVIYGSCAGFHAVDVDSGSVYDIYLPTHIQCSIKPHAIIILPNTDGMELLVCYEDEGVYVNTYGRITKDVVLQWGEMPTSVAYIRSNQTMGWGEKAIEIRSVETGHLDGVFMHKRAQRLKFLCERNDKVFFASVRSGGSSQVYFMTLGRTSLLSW
Sequence of MAP3K9/MLK1 (P80192 whole entry): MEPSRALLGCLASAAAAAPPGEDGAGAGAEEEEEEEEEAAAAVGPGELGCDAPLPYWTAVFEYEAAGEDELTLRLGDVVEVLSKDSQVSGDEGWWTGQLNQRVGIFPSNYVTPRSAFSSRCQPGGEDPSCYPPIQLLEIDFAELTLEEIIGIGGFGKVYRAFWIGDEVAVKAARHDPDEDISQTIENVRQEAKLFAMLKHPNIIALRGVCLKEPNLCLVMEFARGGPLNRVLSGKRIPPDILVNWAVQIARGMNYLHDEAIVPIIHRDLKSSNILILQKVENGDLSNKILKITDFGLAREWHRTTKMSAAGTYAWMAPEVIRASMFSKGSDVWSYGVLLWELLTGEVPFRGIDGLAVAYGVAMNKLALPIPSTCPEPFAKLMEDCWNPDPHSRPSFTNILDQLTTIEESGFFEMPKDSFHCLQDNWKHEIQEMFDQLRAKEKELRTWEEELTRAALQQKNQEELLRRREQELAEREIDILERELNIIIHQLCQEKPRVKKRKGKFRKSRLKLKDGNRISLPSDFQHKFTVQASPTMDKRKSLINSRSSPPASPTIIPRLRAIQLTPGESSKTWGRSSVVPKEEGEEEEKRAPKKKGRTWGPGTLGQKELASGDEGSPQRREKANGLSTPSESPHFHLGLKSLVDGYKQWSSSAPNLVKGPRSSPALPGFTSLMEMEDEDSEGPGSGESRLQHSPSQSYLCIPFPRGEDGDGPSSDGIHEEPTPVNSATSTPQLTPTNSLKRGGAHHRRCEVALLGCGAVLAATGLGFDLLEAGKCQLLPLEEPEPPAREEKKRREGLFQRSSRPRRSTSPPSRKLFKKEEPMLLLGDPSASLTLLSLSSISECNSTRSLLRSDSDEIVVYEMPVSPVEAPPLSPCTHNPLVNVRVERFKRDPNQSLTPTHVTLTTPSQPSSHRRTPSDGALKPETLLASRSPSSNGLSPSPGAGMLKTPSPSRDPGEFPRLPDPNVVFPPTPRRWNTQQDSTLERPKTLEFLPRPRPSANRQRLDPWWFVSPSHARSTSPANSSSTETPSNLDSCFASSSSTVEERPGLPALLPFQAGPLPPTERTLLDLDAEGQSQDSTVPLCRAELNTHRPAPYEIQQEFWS
Sequence of PRKG2/PKG2 (Q13237 whole entry): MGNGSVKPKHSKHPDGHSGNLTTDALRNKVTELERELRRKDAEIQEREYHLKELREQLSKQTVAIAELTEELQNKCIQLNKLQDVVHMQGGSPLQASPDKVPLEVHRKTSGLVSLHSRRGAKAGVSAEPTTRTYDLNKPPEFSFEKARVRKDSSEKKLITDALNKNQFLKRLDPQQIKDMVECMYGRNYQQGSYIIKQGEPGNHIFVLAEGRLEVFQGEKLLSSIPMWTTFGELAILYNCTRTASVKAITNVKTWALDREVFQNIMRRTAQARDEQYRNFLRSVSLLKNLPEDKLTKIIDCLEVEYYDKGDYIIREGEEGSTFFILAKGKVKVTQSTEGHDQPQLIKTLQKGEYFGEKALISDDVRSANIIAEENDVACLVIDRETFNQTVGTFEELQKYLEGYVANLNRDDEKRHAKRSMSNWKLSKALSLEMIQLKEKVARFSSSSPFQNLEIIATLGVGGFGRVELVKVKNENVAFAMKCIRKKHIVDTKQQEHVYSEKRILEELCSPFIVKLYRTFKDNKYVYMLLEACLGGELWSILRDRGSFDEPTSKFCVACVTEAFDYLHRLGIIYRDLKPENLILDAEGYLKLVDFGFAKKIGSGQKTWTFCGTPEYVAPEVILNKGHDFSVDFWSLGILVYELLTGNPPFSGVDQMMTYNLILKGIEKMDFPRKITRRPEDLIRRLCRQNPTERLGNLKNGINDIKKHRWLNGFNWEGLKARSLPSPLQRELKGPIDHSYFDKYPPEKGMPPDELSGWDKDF
Sequence of DAPK2 (Q9UIK4 whole entry): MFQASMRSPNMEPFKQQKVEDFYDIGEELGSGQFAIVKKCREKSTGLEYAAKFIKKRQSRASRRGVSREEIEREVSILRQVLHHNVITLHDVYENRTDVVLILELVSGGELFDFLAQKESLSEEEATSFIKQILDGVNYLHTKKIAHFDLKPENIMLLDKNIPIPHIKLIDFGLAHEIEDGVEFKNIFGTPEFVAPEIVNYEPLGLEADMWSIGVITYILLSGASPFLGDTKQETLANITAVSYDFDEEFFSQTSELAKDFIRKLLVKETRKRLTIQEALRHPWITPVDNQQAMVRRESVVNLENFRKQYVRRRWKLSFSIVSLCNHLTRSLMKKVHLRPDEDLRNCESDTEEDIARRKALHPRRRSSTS
Sequence of PDGFRB (P09619 33-1106): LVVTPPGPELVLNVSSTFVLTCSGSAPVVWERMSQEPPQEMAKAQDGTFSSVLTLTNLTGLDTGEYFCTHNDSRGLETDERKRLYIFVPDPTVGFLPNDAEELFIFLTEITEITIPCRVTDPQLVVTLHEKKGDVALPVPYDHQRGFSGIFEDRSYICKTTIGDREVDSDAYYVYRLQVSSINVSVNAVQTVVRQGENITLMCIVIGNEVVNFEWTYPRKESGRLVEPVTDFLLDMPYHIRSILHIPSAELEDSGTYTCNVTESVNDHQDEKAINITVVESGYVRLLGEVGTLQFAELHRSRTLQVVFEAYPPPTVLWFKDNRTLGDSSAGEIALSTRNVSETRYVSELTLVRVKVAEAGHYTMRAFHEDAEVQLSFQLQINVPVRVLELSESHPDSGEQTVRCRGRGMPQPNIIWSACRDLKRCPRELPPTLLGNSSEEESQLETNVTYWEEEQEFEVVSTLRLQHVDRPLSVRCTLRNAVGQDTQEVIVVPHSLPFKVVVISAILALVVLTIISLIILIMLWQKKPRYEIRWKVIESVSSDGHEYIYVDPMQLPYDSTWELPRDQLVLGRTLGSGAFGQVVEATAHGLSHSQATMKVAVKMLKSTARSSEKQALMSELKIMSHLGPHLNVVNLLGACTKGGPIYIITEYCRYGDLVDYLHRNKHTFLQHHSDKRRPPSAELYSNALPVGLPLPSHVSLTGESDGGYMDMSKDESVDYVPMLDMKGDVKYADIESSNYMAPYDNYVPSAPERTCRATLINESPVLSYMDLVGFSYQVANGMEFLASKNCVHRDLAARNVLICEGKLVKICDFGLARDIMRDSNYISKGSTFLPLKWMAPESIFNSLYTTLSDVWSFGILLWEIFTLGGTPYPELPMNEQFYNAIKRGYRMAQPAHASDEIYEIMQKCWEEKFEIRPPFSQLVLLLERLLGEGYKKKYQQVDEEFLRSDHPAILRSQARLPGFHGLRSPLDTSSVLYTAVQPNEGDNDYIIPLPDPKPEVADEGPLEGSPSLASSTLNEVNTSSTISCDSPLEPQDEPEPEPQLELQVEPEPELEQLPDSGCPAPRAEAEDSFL

As to `COc1ccc2[nH]c3c4[nH]c5ccc(OC)cc5c4c4c(c3c2c1)C(=O)NC4=O` [GW296115], the “Nanosyn % Inhibition at 1 μM” value in experiment [1] is given as 102%. Moreover, the inhibition (in general, how much of the control response was suppressed) at 1 µM in [2] amounted to 90%; in experiment [3] it was 96.7%; in experiment [4], 96.9%; in experiment [5], 95.1%; in [6], 91.4%; in experiment [7], 96%. Also, the inhibition at 1 µM in [8] came out at 91.4%; in [9], 99.8%; in [10] it was 94.4%; in experiment [11], 98.8%; in experiment [12], 94.7%; in experiment [13], 100%. For the same compound, testing at 1 µM in experiment [14] gave an inhibition of 97.7%.
